This note sets out measurements from patent publication EP4682156A1, “LINKER AND DRUG CONJUGATE USING SAME, AND ANTIBODY-DRUG CONJUGATE AND USE THEREOF” (Shanghai Affinity Biopharmaceutical Co., Ltd., priority 2023, dated 2024).

Structures are written as SMILES. *1 amine or outer side, *2 acyl side, *3 side chain or, on linkers, in order; H or OH if unused. Where a SMILES comes first, the peptide text is derived from it. [ ]: non-standard residue; d: D form. The star is where a group is joined. Exatecan = CC[C@@]1(O)C(=O)OCc2c1cc1n(c2=O)Cc2c-1nc1cc(F)c(C)c3c1c2[C@@H](N*)CC3; Hexanoyl(6-maleimido) = O=C1C=CC(=O)N1CCCCCC(=O)*; Propanoyl(3-maleimido) = O=C1C=CC(=O)N1CCC(=O)*; PEG6 = NCCOCCOCCOCCOCCOCCOCCC(=O)O; NHCH2OCH2CO = O=C(COCN[*:1])[*:2]

Data set [1] deals with T1, cathepsin L (Homo sapiens, UniProt P07711). The data set is described as follows: Enzymatic cleavage by cathepsin L, released DXD quantified by HPLC. Type of data set: biochemical. The settings on record: pH 6.
Another data set concerns the target cathepsin B (Homo sapiens, UniProt P07858). In words: Enzymatic cleavage by cathepsin B, released DXD quantified by HPLC. The data set is classed as biochemical. Particulars: 20 hours of action of cathepsin B, 37°C, pH 5.0. Here is the method:
(§1) About 25 mg of DXD reference substance was accurately weighed and placed in a 5 mL volumetric flask. DMSO was added to the scale mark and the mixture was mixed to prepare a 10 mM solution which was marked as the standard stock solution. The standard stock solution was taken and prepared into standard solutions with concentrations of 20nmol/mL, 10nmol/mL, 5nmol/mL, 2nmol/mL, 1nmol/mL, and 0.2nmol/mL. 10uL was taken and injected into HPLC, the peak area was recorded. The linear equation was calculated by using the peak area as the ordinate and the concentration as the abscissa.
(§2) • chromatographic column: Agilent Eclipse Plus C18 5um, 4.6*250mm • Fluorescence detector: […] • Mobile phase A: 0.1%TFA/H2O B: ACN • Flow rate: 1ml/min • Injection volume: 10uL
• Activation buffer: 25mM MES, 5mM DTT, pH 5.0 • Assay buffer: 25 mM MES, pH 5.0. • Cathepsin B: 100 µg/mL in activation buffer, incubated at room temperature for 15 minutes
Preparation of sample solution: An appropriate amount of MI-PEG6-GGFL-AM-DXD and EMC-GGFG-AM-DXD were respectively weighed and added with a certain amount of DMSO solution to make the concentration of the stock solution thereof being 10 umol/mL. Then 10uL of the stock solution was respectively taken and added with 80uL of DMSO to dilute to 1 umol/mL. […]

Data set [2] can be described thus: Stability in monkey heart homogenate. The data set is classed as in vitro ADME. The settings on record: 20 hours, 37°C, pH 5.0. The protocol: (§3) • Assay buffer: 25 mM MES, pH 5.0. • Protein precipitation agent: DMSO/MEOH = 1:1
(§4) Preparation of sample solution: An appropriate amount of MI-PEG6-GGFL-AM-DXD and EMC-GGFG-AM-DXD were weighed and added with a certain amount of DMSO solution to make the concentration of the stock solution thereof being 10 umol/mL. Then 10uL of the stock solution were taken and added with 80uL of DMSO to dilute to 1 umol/mL. Then pure water was added in a ratio of 1:4 to dilute the sample solution to a concentration of 0.2 umol/mL.
An appropriate amount of fast frozen heart by liquid nitrogen was placed in a 4 mL EP tube and weighed. Assay buffer with pH 5.0 was added at a mass-to-volume ratio of 1:5. The tissue was homogenized using a tissue grinder for 3 min. The heart homogenate was then centrifuged at 12,000 rpm for 5 min. The supernatant was collected and stored in a -40°C refrigerator for later use.
The sample solution and the heart homogenate were respectively taken at a volume ratio of 1:9 and shaken thoroughly. Another sample solution and buffer solution (pH 5.0) were also shaken thoroughly at a volume ratio of 1:9 as a blank control solution. The solution was placed in a 37°C constant temperature water bath. 30uL was taken at 0h, 2h, 4h, and 20h, and added with 90uL of protein precipitation agent and shaken thoroughly. […]

A short description of data set [3]: Stability in monkey liver homogenate. The data set is classed as in vitro ADME. The settings on record: 20 hours, 37°C, pH 5.0. Here is the method: as §3, §4
An appropriate amount of fast frozen liver by liquid nitrogen was placed in a 4 mL EP tube and weighed. Assay buffer with pH 5.0 was added at a mass-to-volume ratio of 1:5. The tissue was homogenized using a tissue grinder for 3 min. The liver homogenate was then centrifuged at 12,000 rpm for 5 min. The supernatant was collected and stored in a -40°C refrigerator for later use.
The sample solution and the liver homogenate were respectively taken at a volume ratio of 1:9 and shaken thoroughly. Another sample solution and buffer solution (pH 5.0) were also shaken thoroughly at a volume ratio of 1:9 as a blank control solution. The solution was placed in a 37°C constant temperature water bath. 30uL was taken at 0h, 2h, 4h, and 20h, and added with 90uL of protein precipitation agent and shaken thoroughly. […]

Data set [4] is described as follows: Stability in human plasma. The settings on record: 20 hours, 37°C.
The nature of data set [5]: Activation in CT26 tumor homogenate (tumor homogenate 2). The settings on record: tumor homogenate 2 (CT26), 20 hours, 37°C, pH 5.0.
Data set [6] is described as follows: Activation in human gastric cancer tumor homogenate (tumor homogenate 1). Particulars: tumor homogenate 1, after 20 hours, 37°C, pH 5.0.
Data set [7] deals with T1, cathepsin L. The data set is described as follows: Enzymatic cleavage by cathepsin L, released DXD quantified by HPLC. The settings on record: within 20 h. Type of data set: biochemical. Here is the method: as §1, §2
• Assay Buffer: 50mM MES, 5mM DTT, 1mM EDTA, 0.005% (w/v) Brij-35, pH6.0. • Cathepsin L: 100 µg/mL in assay buffer, incubated on ice for 15 min.
Preparation of sample solution: An appropriate amount of L-AM-DXD was weighed and added with a certain amount of DMSO solution to make the concentration of the stock solution being 10 umol/mL. Then 10uL of the stock solution was taken and added with 80uL of DMSO to dilute to 1 umol/mL. Then pure water was added in a ratio of 1:4 to dilute the sample solution to a concentration of 0.2 umol/mL. […]

Data set [8] can be described thus: Stability in human plasma. Particulars: within 20 hours. The data set is classed as in vitro ADME. Here is the method:
• PBS buffer: pH = 7.2 • Protein precipitation agent: DMSO/MEOH = 1:1
Preparation of sample solution: An appropriate amount of MI-PEG6-GGFL-AM-DXD and GGFG-AM-DXD were weighed and added with a certain amount of DMSO solution to make the concentration of the stock solution thereof being 10 umol/mL. Then 10uL of the stock solution was taken and added with 80uL of DMSO to dilute to 1 umol/mL. Then pure water was added in a ratio of 1:4 to dilute the sample solution to a concentration of 0.2 umol/mL.
An appropriate amount of sample was weighed and prepared into a 1 mM solution with DMSO. Human plasma was added at a volume ratio of 1:9 and the solution was incubated in a 37°C incubator. Samples were taken after 0, 2, 4, 6, and 20 h. DMSO/MEOH (1:1) was added at a volume ratio of 1:3 to remove protein. The solution was centrifuged at 12,000 rpm for 5 min and the supernatant was collected. The HPLC method was as described in 1.2 of Example 4.

In a further data set the test system is Human Fibrosarcoma. The data set is described as follows: Drug efficacy study of drug conjugates on human fibrosarcoma tumor model. The data set is classed as in vivo, Nude mice.
The mark [9] stands for this setting: 5 µmol/kg (1/10 MTD) once a week for 3 weeks, Day 20.

T1 sequence (P07711 114-333): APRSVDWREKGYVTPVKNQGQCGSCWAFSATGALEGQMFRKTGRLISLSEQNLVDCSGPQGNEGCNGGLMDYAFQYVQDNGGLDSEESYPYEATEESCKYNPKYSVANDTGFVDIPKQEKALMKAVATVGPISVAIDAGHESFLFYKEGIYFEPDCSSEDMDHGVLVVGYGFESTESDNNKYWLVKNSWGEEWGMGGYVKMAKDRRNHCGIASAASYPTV

Turning to `CC[C@@]1(O)C(=O)OCc2c1cc1n(c2=O)Cc2c-1nc1cc(F)c(C)c3c1c2[C@@H](NC(=O)COCNC(=O)CNC(=O)[C@H](Cc1ccccc1)NC(=O)CNC(=O)CNC(=O)CCCCCN1C(=O)C=CC1=O)CC3` [EMC-GGFG-AM-DXD, reference compound] ({Hexanoyl(6-maleimido)}-GGFG[NHCH2OCH2CO]-Exatecan), at cathepsin L [1], the “DXD produced, share of the reaction substrate (enzymatic cleavage activation efficiency)” value is 27.8%. The “DXD produced by enzymatic cleavage, share of the reaction substrate” value at cathepsin B is recorded as 45.2%. In addition, the “DXD produced, share of the substrate” value worked out at 7.41% in data set [2], 27.6% in [3] and 2.88% in data set [4]. The substrate contents in data set [4] was found to be 97.1%.

As for `CC[C@@]1(O)C(=O)OCc2c1cc1n(c2=O)Cc2c-1nc1cc(F)c(C)c3c1c2[C@@H](NC(=O)COCNC(=O)[C@H](CC(C)C)NC(=O)[C@H](Cc1ccccc1)NC(=O)CNC(=O)CNC(=O)CCOCCOCCOCCOCCOCCOCCNC(=O)CCN1C(=O)C=CC1=O)CC3` [GGFL-AM-DXD] ({Propanoyl(3-maleimido)-PEG6}-GGFL[NHCH2OCH2CO]-Exatecan), the “DXD produced, share of the substrate” value in [5] was found to be 98.7%; in [6] it was 94.2%.

Regarding `CC[C@@]1(O)C(=O)OCc2c1cc1n(c2=O)Cc2c-1nc1cc(F)c(C)c3c1c2[C@@H](NC(=O)COCNC(=O)[C@H](CC(C)C)NC(=O)[C@H](Cc1ccccc1)NC(=O)CNC(=O)CNC(=O)CCOCCOCCOCCOCCOCCOCCNC(=O)CCN1C(=O)C=CC1=O)CC3` [S7, MI-PEG6-GGFL-AM-DXd] ({Propanoyl(3-maleimido)-PEG6}-GGFL[NHCH2OCH2CO]-Exatecan), the “Enzymatic cleavage efficiency %” value at cathepsin L [7] is listed as 98.3%. In addition, in [8], the Generated load % worked out at 1.7% and the Substrate content % was determined as 98.3%. For the same compound, in the data set with Human Fibrosarcoma (setting [9]), the “Anti-tumor rate% Day 20” value was found to be 98% and the “Tumor volume(mm^3) Day 20” value was 20 mm^3. The “treatment efficacy compared with DXd” value in the data set with Human Fibrosarcoma (same dose 5 µmol/kg once a week for 3 weeks) is reported as “significantly improved treatment efficacy”.
